Results taken from patent US20240262806A1, “INHIBITORS OF NLRP3” (PTC THERAPEUTICS, INC., priority 2021, published 2024).
pIC50: −log10 of the molar value.

Tested on: NLRP3 inflammasome
Assay: IL-1β Secretion Assay (NLRP3-dependent IL-1β secretion in PMA-differentiated THP-1 cells, nigericin activation, HTRF)
Type: cell-based
Conditions: Homo sapiens, THP-1, THP-1 cells, 100 ng/mL PMA 24 h, compound 20 h, 2.5 μM Nigericin 3 h; read-out: IC50 IL-1β Inhibition
Outline: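 PMA-differentiated THP-1 cells in RPMI with 5% FBS were treated with compounds at 7 concentrations in threefold DMSO dilutions. NLRP3 was activated with nigericin and secreted IL-1β measured by HTRF. IC50 from a logistic fit of percent inhibition versus concentration.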

`FC(F)Oc1cc(C(F)(F)F)ccc1-c1nnc(N[C@@H]2CCCCCNC2)n2cccc12` [Compound I-324, 1-[2-(difluoromethoxy)-4-(trifluoromethyl)phenyl]-N-[(3R)-azocan-3-yl]pyrrolo[1,2-d][1,2,4]triazin-4-amine] and `FC(F)Oc1cc(C(F)(F)F)ccc1-c1nnc(N[C@@H]2CCCOC2)n2cccc12` [Compound I-376] fall in the same range of pIC50: 8.00 to 9.00 for the first, 8.00 to 9.00 for the second.

First: OCCN1CCC[C@@H](Nc2nnc(-c3ccc(C(F)(F)F)cc3OC(F)F)c3cccn23)C1 [Compound I-325, 2-[(3R)-3-[[1-[2-(Difluoromethoxy)-4-(trifluoromethyl)phenyl]pyrrolo[1,2-d][1,2,4]triazin-4-yl]amino]-1-piperidyl]ethanol]
Second: CCN1CCC[C@@H](Nc2nnc(-c3ccc(C(F)(F)F)cc3OC(F)F)c3cccn23)C1 [Compound I-335]
The pIC50 of the first is lower: 8.00 to 9.00 for the first, greater than 9.00 for the second. The second is the more potent here.

First: FC(F)Oc1cc(C(F)(F)F)ccc1-c1nnc(N[C@@H]2CCCN(C3CCOCC3)C2)n2cccc12 [Compound I-326]
Second: Oc1cc(C(F)(F)F)ccc1-c1nnc(N[C@@H]2CCCN(C3CCOCC3)C2)n2cccc12 [Compound I-343]
The pIC50 of the first is higher: greater than 9.00 for the first, 8.00 to 9.00 for the second.

First: Cc1cc2c(-c3ccc(C4CC4)cc3O)nnc(N[C@@H]3CCCN(C)C3)n2n1 [Compound I-327]
Second: Cc1cc2c(-c3ccc(Br)cc3O)nnc(N[C@@H]3CCCN(C)C3)n2n1 [Compound I-334]
The pIC50 of the first is lower: 8.00 to 9.00 for the first, greater than 9.00 for the second. The second is the more potent here.

First: Cc1cc2c(-c3ccc(C(F)(F)F)cc3O)nnc(N[C@@H]3CCCN(C)C3)n2n1 [Compound I-329, (R)-2-(2-methyl-7-((1-methylpiperidin-3-yl)amino)pyrazolo[1,5-d][1,2,4]triazin-4-yl)-5-(trifluoromethyl)phenol]
Second: CN1CCC[C@@H](Nc2nnc(-c3ccc(C(F)(F)F)cc3O)c3cc(C4CC4)nn23)C1 [Compound I-345]
The pIC50 of the first is higher: greater than 9.00 for the first, 8.00 to 9.00 for the second. The first is the more potent here.

`Cc1cc2c(-c3ccc(C(F)(F)F)cc3OC(F)F)nnc(N[C@@H]3CCCN(C)C3)n2n1` [Compound I-330] and `Cc1cc2c(-c3ccc(C(F)(F)F)cc3OC(F)F)nnc(N[C@@H]3CCCN(CCO)C3)n2n1` [Compound I-375, (R)-2-(3-((4-(2-(Difluoromethoxy)-4-(trifluoromethyl)phenyl)-2-methylpyrazolo[1,5-d][1,2,4]triazin-7-yl)amino)piperidin-1-yl)ethan-1-ol] fall in the same range of pIC50: 8.00 to 9.00 for the first, 8.00 to 9.00 for the second.

`Cc1cc2c(N[C@@H]3CCCNC3)nnc(-c3ccc(C(F)(F)F)cc3O)n2n1` [Compound I-332] and `Cc1cc2c(N[C@@H]3CCCN(C)C3)nnc(-c3ccc(C(F)(F)F)cc3O)n2n1` [Compound I-336] fall in the same range of pIC50: 7.00 to 8.00 for the first, 7.00 to 8.00 for the second.

`CN1CCC[C@@H](Nc2nnc(-c3ccc(C(F)(F)F)cc3O)c3cncn23)C1` [Compound I-333, 2-[4-[[(3R)-1-Methyl-3-piperidyl]amino]imidazo[1,5-d][1,2,4]triazin-1-yl]-5-(trifluoromethyl)phenol] and `CCN1CCC[C@@H](Nc2nnc(-c3ccc(C(F)(F)F)cc3O)c3cncn23)C1` [Compound I-360] cannot be ordered by pIC50: greater than 9.00 for the first, greater than 9.00 for the second.

First: Cc1ccc(-c2nnc(N[C@@H]3CCCN(C)C3)n3cccc23)c(O)c1 [Compound I-337]
Second: CN1CCC[C@@H](Nc2nnc(-c3ccc(Cl)cc3O)c3cccn23)C1 [Compound I-355]
The pIC50 of the first is lower: 8.00 to 9.00 for the first, greater than 9.00 for the second.

First: Cc1cc2c(N[C@@H]3CCCN(CCO)C3)nnc(-c3ccc(C(F)(F)F)cc3O)n2n1 [Compound I-338]
Second: OCCN1CCC[C@@H](Nc2nnc(-c3ccc(C(F)(F)F)cc3O)c3cncn23)C1 [Compound I-350]
The pIC50 of the first is lower: 7.00 to 8.00 for the first, 8.00 to 9.00 for the second.

Compared with `COc1ccc(-c2nnc(N[C@@H]3CCCNC3)c3cc(C)nn23)c(O)c1` [Compound I-339], `COc1ccc(-c2nnc(N[C@@H]3CCCN(C)C3)c3cc(C)nn23)c(O)c1` [Compound I-351] is higher in pIC50: 6.52 to 7.00 for the first, 7.00 to 8.00 for the second.

Compared with `Oc1cc(C2CC2)ccc1-c1nnc(N[C@@H]2CCCN(C3CCOCC3)C2)n2cccc12` [Compound I-340], `CN1CCC[C@@H](Nc2nnc(-c3c(O)cc(C4CC4)cc3F)c3cccn23)C1` [Compound I-380] is higher in pIC50: 8.00 to 9.00 for the first, greater than 9.00 for the second. The second is the more potent here.

`Cc1cc(O)c(-c2nnc(N[C@@H]3CCCN(CCO)C3)n3cccc23)c(F)c1` [Compound I-341] and `Cc1cc(O)c(-c2nnc(N[C@@H]3CCCN(C)C3)n3cccc23)c(F)c1` [Compound I-342, 3-Fluoro-5-methyl-2-[4-[[(3R)-1-methyl-3-piperidyl]amino]pyrrolo[1,2-d][1,2,4]triazin-1-yl]phenol] fall in the same range of pIC50: 8.00 to 9.00 for the first, 8.00 to 9.00 for the second.

First: Cc1cc(O)c(-c2nnc(N[C@@H]3CCCN(CCOC(F)F)C3)n3cccc23)c(F)c1 [Compound I-344]
Second: OCCN1CCC[C@@H](Nc2nnc(-c3c(O)cc(C4CC4)cc3F)c3cccn23)C1 [Compound I-379]
The pIC50 of the first is higher: greater than 9.00 for the first, 8.00 to 9.00 for the second.

Compared with `CN1CCC[C@@H](Nc2nnc(-c3ccc(C(F)(F)F)cc3OC(F)F)c3cc(C4CC4)nn23)C1` [Compound I-346], `COc1ccc(-c2nnc(N[C@@H]3CCCN(C)C3)n3nc(C4CC4)cc23)c(O)c1` [Compound I-347] is lower in pIC50: 8.00 to 9.00 for the first, 7.00 to 8.00 for the second. The first is the more potent here.

Compared with `CN1CCC[C@@H](Nc2nnc(-c3ccc(C(F)(F)F)cc3C(F)(F)F)c3cccn23)C1` [Compound I-348], `CCN1CCC[C@@H](Nc2nnc(-c3ccc(C(F)(F)F)cc3C(F)(F)F)c3cccn23)C1` [Compound I-371] is higher in pIC50: 8.00 to 9.00 for the first, greater than 9.00 for the second.

`COc1cc(C(F)(F)F)ccc1-c1nnc(N[C@@H]2CCCN(C)C2)n2cncc12` [Compound I-349, 1-[2-Methoxy-4-(trifluoromethyl)phenyl]-N-[(3R)-1-methyl-3-piperidyl]imidazo[1,5-d][1,2,4]triazin-4-amine] and `COc1cc(Cl)ccc1-c1nnc(N[C@@H]2CCCN(C)C2)n2cncc12` [Compound I-383] fall in the same range of pIC50: 8.00 to 9.00 for the first, 8.00 to 9.00 for the second.

Compared with `Oc1cc(C(F)(F)F)ccc1-c1nnc(N[C@@H]2CCCNC2)n2cccc12` [Compound I-352], `Oc1cc(OC(F)(F)F)ccc1-c1nnc(N[C@@H]2CCCNC2)n2cccc12` [Compound I-365] is lower in pIC50: 8.00 to 9.00 for the first, 7.00 to 8.00 for the second.

`OCCN1CCC[C@@H](Nc2nnc(-c3ccc(C(F)(F)F)cc3O)c3cccn23)C1` [Compound I-353] and `OCCN1CCC[C@@H](Nc2nnc(-c3ccc(OC(F)(F)F)cc3O)c3cccn23)C1` [Compound I-373] fall in the same range of pIC50: 8.00 to 9.00 for the first, 8.00 to 9.00 for the second.

First: Cc1ccc(-c2nnc(N[C@@H]3CCCN(CCO)C3)n3cccc23)c(O)c1 [Compound I-354]
Second: OCCN1CCC[C@@H](Nc2nnc(-c3ccc(Cl)cc3O)c3cccn23)C1 [Compound I-369]
The pIC50 of the first is higher: greater than 9.00 for the first, 8.00 to 9.00 for the second.

First: CN1CCC[C@@H](Nc2nnc(-c3ccc(Cl)cc3OC(F)F)c3cccn23)C1 [Compound I-356, 1-[4-Chloro-2-(difluoromethoxy)phenyl]-N-[(3R)-1-methyl-3-piperidyl]pyrrolo[1,2-d][1,2,4]triazin-4-amine]
Second: Oc1cc(Cl)ccc1-c1nnc(N[C@@H]2CCCN(CC(F)F)C2)n2cccc12 [Compound I-368]
The pIC50 of the first is higher: 8.00 to 9.00 for the first, 7.00 to 8.00 for the second. The first is the more potent here.

`COc1ccc(-c2nnc(N[C@@H]3CCCN(C)C3)n3cccc23)c(O)c1` [Compound I-357] and `CCN1CCC[C@@H](Nc2nnc(-c3ccc(OC)cc3O)c3cccn23)C1` [Compound I-377] fall in the same range of pIC50: 8.00 to 9.00 for the first, 8.00 to 9.00 for the second.

`COc1ccc(-c2nnc(N[C@@H]3CCCN(CCO)C3)n3cccc23)c(O)c1` [Compound I-358] and `CN1CCC[C@@H](Nc2nnc(-c3ccc(OC(F)(F)F)cc3O)c3cccn23)C1` [Compound I-366] fall in the same range of pIC50: 8.00 to 9.00 for the first, 8.00 to 9.00 for the second.

`Cc1cc(O)c(-c2nnc(N[C@@H]3CCCN(C)C3)n3nc(C)cc23)c(F)c1` [Compound I-359] and `Cc1cc2c(-c3c(O)cc(C(F)(F)F)cc3F)nnc(N[C@@H]3CCCN(C)C3)n2n1` [Compound I-363] cannot be ordered by pIC50: greater than 9.00 for the first, greater than 9.00 for the second.

First: O[C@H]1CCC[C@@H](Nc2nnc(-c3ccc(C(F)(F)F)cc3OC(F)F)c3cccn23)C1 [Compound I-361, (1S,3R)-3-[[1-[2-(Difluoromethoxy)-4-(trifluoromethyl)phenyl]pyrrolo[1,2-d][1,2,4]triazin-4-yl]amino]cyclohexanol]
Second: N[C@H]1CCC[C@@H](Nc2nnc(-c3ccc(C(F)(F)F)cc3OC(F)F)c3cccn23)C1 [Compound I-378]
The pIC50 of the first is higher: 8.00 to 9.00 for the first, 7.00 to 8.00 for the second. The first is the more potent here.

First: CO[C@H]1CCC[C@@H](Nc2nnc(-c3ccc(C(F)(F)F)cc3OC(F)F)c3cccn23)C1 [Compound I-362]
Second: CN1C[C@H](O)C[C@@H](Nc2nnc(-c3ccc(C(F)(F)F)cc3OC(F)F)c3cccn23)C1 [Compound I-385, (3R,5R)-5-[[1-[2-(Difluoromethoxy)-4-(trifluoromethyl)phenyl]pyrrolo[1,2-d][1,2,4]triazin-4-yl]amino]-1-methyl-piperidin-3-ol]
The pIC50 of the first is higher: 7.00 to 8.00 for the first, 6.52 to 7.00 for the second.

First: CC(C)(O)CN1CCC[C@@H](Nc2nnc(-c3ccc(C(F)(F)F)cc3O)c3cccn23)C1 [Compound I-364]
Second: Cc1ccc(-c2nnc(N[C@@H]3CCCN(CC(C)(C)O)C3)n3cccc23)c(O)c1 [Compound I-367]
The pIC50 of the first is higher: 8.00 to 9.00 for the first, 7.00 to 8.00 for the second.

`COc1ccc(-c2nnc(N[C@@H]3CCCN(C)C3)n3cccc23)c(C(F)(F)F)c1` [Compound I-370] and `COc1ccc(-c2nnc(N[C@@H]3CCCN(C)C3)n3nc(C)cc23)c(C(F)(F)F)c1` [Compound I-381] fall in the same range of pIC50: 8.00 to 9.00 for the first, 8.00 to 9.00 for the second.

Compared with `CN1CCC[C@@H](Nc2nnc(-c3c(O)cc(C(F)(F)F)cc3F)c3cccn23)C1` [Compound I-372], `Cc1cc2c(-c3ccc(C(F)(F)F)cc3C(F)(F)F)nnc(N[C@@H]3CCCN(C)C3)n2n1` [Compound I-382] is lower in pIC50: greater than 9.00 for the first, 8.00 to 9.00 for the second.

First: Cc1cc2c(-c3ccc(Br)cc3OC(F)(F)F)nnc(N[C@@H]3CCCN(C)C3)n2n1 [Compound I-374, (R)-4-(4-Bromo-2-(trifluoromethoxy)phenyl)-2-methyl-N-(1-methylpiperidin-3-yl)pyrazolo[1,5-d][1,2,4]triazin-7-amine]
Second: CN1CCC[C@@H](Nc2nnc(-c3ccc(Cl)cc3O)c3cncn23)C1 [Compound I-384]
The pIC50 of the first is lower: 8.00 to 9.00 for the first, greater than 9.00 for the second. The second is the more potent here.
